“And” between values parts separate entries of the source, which are not always exact repeats. Identical values can stand only once. “Also recorded” adds a separate entry of the source. Like-named read-outs stand apart in the source and are kept apart here. Bridge positions count the residues as written; N and C are the ends. Square brackets hold non-standard residues; d marks the D form. Peptide text beside a SMILES is read from it. hArg = N=C(N)NCCCC[C@H](N)C(=O)O
Legend:
PCSK9Δhelix [1] = target: T1, PCSK9Δhelix (Homo sapiens, UniProt Q8NBP7); assay: Surface plasmon resonance biosensor-based affinity analysis (Example 4); format: binding; conditions: for Kd: Table 7, Target PCSK9Δhelix, SPR at 20° C., read-out: Kd
T1 construct: Human PCSK9 construct M1-Q692 with an engineered TEV site (residue deletion Y166, R167); made in house; host or cells: CHO

PCSK9 [2] = target: T2, PCSK9 (Homo sapiens, UniProt Q8NBP7); assay: Cell surface LDLR assay with HepG2 cells; format: cell-based; conditions: for EC50 / surface LDLR levels restored: HepG2 cells; for EC50: 15 μg/mL PCSK9, 4 h, FACS; for surface LDLR levels restored: maximal restoration, percent of control without PCSK9
Protocol: HepG2 cells (ATCC; Manassas, Va.) were seeded into 48 well plates (Corning; Corning, N.Y.) at 1×10^5 cells per well in high glucose medium (DMEM, Gibco; Carlsbad, Calif.) containing 2 mM glutamine (Sigma), penicillin/streptomycin (Gibco) and 10% FBS (Sigma; St. Louis, Mo.) and incubated overnight. Then the medium was changed to DMEM containing 10% lipoprotein deficient serum (LPDS, Sigma). After 24 h, 15 μg/mL PCSK9 was incubated with peptides or Fab33 for 30 min, added to the cells and incubated at 37° C. for 4 h. Cells were rinsed with PBS and detached using Cell Dissociation Buffer in PBS (Gibco). After centrifugation, the resuspended cells were incubated with 1:20 anti LDLR antibody (Progen Biotechnik; Heidelberg, Germany) on ice for 10 min. The samples were then washed with PBS and incubated with 1:200 diluted goat anti mouse IgG (H+L) Alexa Fluor 488 (Invitrogen; Carlsbad, Calif.) on ice for 5 min. After two PBS washes, cells were re suspended in PBS containing 2.5 μg/mL of propidium iodide and analyzed on a dual laser flow cytometer (FACScan, Becton Dickinson; Franklin Lakes, N.J.). Relative fluorescence units (RFUs) were used to quantify LDLR expression levels on the HepG2 cell surface. Cell surface LDLR levels were expressed as percent of LDLR levels measured in the absence of PCSK9 (=control).
The effect of Compound 229 on PCSK9-mediated LDL receptor degradation was measured in a HepG2 cell assay as previously described (Zhang et al., J Biol Chem. 2014 Jan. 10; 289(2):942-55). Peptides at various concentrations were preincubated with 15 μg/mL PCSK9 in the presence of 0.5% DMSO for 30 min prior to the addition to cells. After a 4 h incubation, the cells were processed for measurements of LDL receptor surface levels by flow cytometry as described (Zhang et al., J Biol Chem. 2014 Jan. 10; 289(2):942-55) (FIG. 37).

PCSK9Δhelix [3] = target: T1, PCSK9Δhelix; assay: Phage competition ELISA; conditions: binding of peptide-displaying phage to PCSK9Δhelix
Protocol: The sequences of selected clones were fused to the N-terminus of M13 major coat protein (p8) using Kunkel mutagenesis method (Kunkel et al., Methods Enzymol 154, 367-82). The resulting construct was transformed to E. Coli. XL1 blue, single colony was grown in 1 mL 2YT supplemented with 50 μg/mL carbenicillin, 10 μg/mL Tetracycline and M13 KO7 helper phage at 37° C. for 2 h, Kanamycin was added to final concentration of 25 μg/mL, growth was continued at 37° C. for 6 h. The culture was transferred to 30 mL 2YT supplemented with 50 μg/mL carbenicillin and 25 μg/mL kanamycin and grown at 37° C. overnight. The next day, the phage was harvested and purified using the standard protocol (Tonikian et al. Nat Protoc. 2007; 2(6):1368-86). […] The bound phage was detected with anti-M13-HRP and the ELISA signal was read at OD450 nm. […] Sub-saturating phage concentration that gave 80% of maximum binding signal was determined by the binding curve.
IC50 measurements were performed by mixing a fixed sub-saturating concentration of peptide-displaying phage with a serial dilution of synthetic peptides in PBT buffer. […] The plates were then washed 10 times with PBT buffer and the bound phage was detected by anti-M13-HRP. […]

His-EGF(A)-Fc = His-EGF(A)-Fc TR-FRET counterscreen
PCSK9 [4] = target: T2, PCSK9; assay: Phage competition ELISA; format: binding; conditions: binding of peptide-displaying phage to PCSK9
How it was run: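 Fixed sub-saturating peptide-phage concentration (80% of max binding signal) mixed with serially diluted synthetic peptides in PBT, added to plates bearing immobilized biotinylated PCSK9 or PCSK9Δhelix, 1 h at room temperature. Bound phage detected with anti-M13-HRP at OD450 nm; IC50 from curve fit, 3 independent repeats.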

PCSK9Δhelix [5] = target: T1, PCSK9Δhelix; assay: PCSK9Δhelix/Ab20 TR-FRET binding assay
PCSK9 [6] = target: T2, PCSK9; assay: PCSK9/EGF(A) TR-FRET binding assay
PCSK9 [7] = target: T2, PCSK9; assay: SPR affinity measurements of peptide binding (Example 8); conditions: Example 8, with standard error; read-out: KD, binding affinity to PCSK9 in SPR experiments
PCSK9 [8] = target: T2, PCSK9; assay: PCSK9/LDLR-Fc TR-FRET assay (LDLR assay); format: binding; conditions: for IC50: Table 11, LDLR-Fc, average ±S.D. of three experiments
Protocol: In black 1536-well assay plates (MaKO, Aurora® Microplates, Whitefish, Mont.), 40 nL of peptide in DMSO were preincubated with 2 μL His-tagged PCSK9 plus anti-His-allophycocyanin in assay buffer (50 mM Tris-HCl, pH 7.5, 150 mM NaCl, 2 mM CaCl2, 0.01% Tween®-20, 0.1% bovine gamma globulins, and protease inhibitor cocktail) for 30 min. Then 2 μL of Fc-tagged ligand and anti-Fc-europium in assay buffer were added and allowed to incubate for 2 h. The PCSK9 and ligand conditions for each assay are as follows: 10 nM C-terminal (His)8-tagged PCSK9 (“(His)8” disclosed as SEQ ID NO: 304) and 12 nM EGF(A)-Fc for the EGF(A) assay, 10 nM C-terminal (His)8-tagged PCSK9 (“(His)8” disclosed as SEQ ID NO: 304) and 2.5 nM LDLR-Fc for the LDLR assay, 1.25 nM C-terminal (His)8-tagged PCSK9Δhelix (“(His)8” disclosed as SEQ ID NO: 304) and 0.75 nM Ab20 for the Ab20 assay, and 2 nM His-EGF(A)-Fc alone for the counterscreen. In all assays, anti-His-allophycocyanin and anti-Fc-europium were used at 20 nM and 2 nM, respectively. Fluorescence was measured with excitation at 340 nm and emission at 671 nm and 618 nm. The TR-FRET ratio was calculated as fluorescence at 671 nm/fluorescence at 618 nm. The ratios were normalized to controls and plotted against peptide concentration to determine IC50 values (Screener Analyzer, Genedata, Basel, CH). The peptides were evaluated in three separate experiments per assay with 10-point titrations and n=2 per concentration. The values presented are the average ±S.D. of three independent experiments.

PCSK9 [9] = target: T2, PCSK9; conditions: Zhang et al. 2014; cited from earlier work
LDLR ectodomain = target: T3, LDLR ectodomain (Homo sapiens, UniProt P01130); conditions: biolayer interferometry, Lipari et al. 2012; read-out: Kd, binding to LDLR, previously reported; cited from earlier work
T3 construct: purchased R & D Systems

[10] = TR-FRET, Example 7, read-out: PCSK9Δhelix/Ab20 IC50
[11] = TR-FRET counterscreen, Table 8E, additional compounds
[12] = TR-FRET, Table 8E, additional compounds, read-out: PCSK9Δhelix/Ab20 IC50
[13] = Table 11, average ±S.D. of three experiments, read-out: Ab20 IC50
[14] = TR-FRET, Table 8E, additional compounds, read-out: PCSK9/EGF(A) IC50
[15] = Table 11, average ±S.D. of three experiments, read-out: EGF(A) IC50

| Compound | Kd range for PCSK9Δhelix binding (PCSK9Δhelix [1]) | Kd (PCSK9Δhelix [1]) | EC50 (PCSK9 [2]) | surface LDLR levels restored (PCSK9 [2]) | IC50 in phage competition ELISA (PCSK9Δhelix [3]) | IC50 (His-EGF(A)-Fc; counterscreen, Example 7) | inhibition in the PCSK9Δhelix/Ab20 binding assay (PCSK9Δhelix [5]) | IC50 (PCSK9Δhelix [5]; [10]) | inhibition in the PCSK9/EGF(A) binding assay (PCSK9 [6]) | Kd (PCSK9 [7]) | inhibition of LDLR-Fc binding to PCSK9 (PCSK9 [8]) | IC50 (PCSK9 [8]) | IC50 (His-EGF(A)-Fc; [11]) | IC50 (PCSK9Δhelix [5]; [12]) | IC50 (PCSK9Δhelix [5]; [13]) | IC50 (PCSK9 [6]; [14]) | IC50 (PCSK9 [6]; [15]) | also measured |
| --- | --- | --- | --- | --- | --- | --- | --- | --- | --- | --- | --- | --- | --- | --- | --- | --- | --- | --- |
| Ac-TVFTSWEEYLDWVGSGDLMPWNLVRIGLLR-NH2 [Compound 20] | sub-nanomolar range | 0.366 nM | 1000 to 5000 nM | 100% | single digit nanomolar range | > 50000 nM | low nanomolar concentrations | 1 nM | significantly improved relative to Pep2-8 |  |  |  |  |  |  |  |  | IC50 in phage competition ELISA (PCSK9 [4]; listed as Pep2-8_K9gvpep7): low nanomolar range; also recorded: single digit nanomolar range |
| CC[C@H](C)[C@H](NC(=O)[C@H](CCCCNC(=N)N)NC(=O)[C@@H](NC(=O)[C@H](CC(C)C)NC(=O)[C@H](CC(N)=O)NC(=O)[C@H](Cc1c[nH]c2ccccc12)NC(=O)CNC(=O)[C@@H]1CCCN1C(=O)[C@H](Cc1ccccc1)NC(=O)[C@H](C)NC(=O)[C@H](Cc1ccccc1)NC(=O)[C@H](CO)NC(C)=O)C(C)C)C(=O)NCC(=O)N[C@@H](CC(C)C)C(=O)N[C@@H](CC(C)C)C(=O)N[C@@H](CCCNC(=N)N)C(N)=O [Compound 228] (Ac-SFAFPGWNLV[hArg]IGLLR-NH2) |  |  |  |  |  |  |  |  | inhibited | 2800 ± 50 nM | inhibited | 30400 ± 1100 nM | ≥ 50000 nM | 13000 nM | 1370 ± 120 nM | 1300 nM | 13200 ± 800 nM |  |
| Ac-TAFTSWEEYLDWV-NH2 [Pep2-8V2A] |  |  |  |  |  |  |  |  |  |  |  |  |  |  |  |  |  | reduction of affinity for PCSK9 versus Pep2-8 (PCSK9 [9]): about 10 fold |
| wildtype PCSK9: wildtype proprotein convertase subtilisin/kexin type 9 |  |  |  |  |  |  |  |  |  |  |  |  |  |  |  |  |  | Kd (LDLR ectodomain): 130 nM and 170 nM |
| CC[C@H](C)[C@@H]1NC(=O)[C@H](CCCNC(=N)N)NC(=O)[C@H](CCC(N)=O)NC(=O)[C@H](CC(C)C)NC(=O)[C@H](CC(N)=O)NC(=O)[C@H](Cc2c[nH]c3ccccc23)NC(=O)[C@@H]2CCCN2C(=O)[C@H](CC(C)C)NC(=O)[C@H](CCCNC(=N)N)NC(=O)[C@@H](NC(=O)CNC(=O)[C@H](CO)NC(=O)CNC(=O)[C@@H](NC(=O)[C@H](Cc2c[nH]c3ccccc23)NC(=O)[C@H](CC(=O)O)NC(=O)[C@H](CC(C)C)NC(=O)[C@H](Cc2ccc(O)cc2)NC(=O)[C@H](CCC(=O)O)NC(=O)[C@H](CCC(=O)O)NC(=O)[C@H](Cc2c[nH]c3ccccc23)NC(=O)[C@H](CO)NC(=O)[C@@H](NC(=O)[C@H](Cc2ccccc2)NC(=O)[C@@H](NC(=O)[C@@H](NC(C)=O)[C@@H](C)O)C(C)C)[C@@H](C)O)C(C)C)CSSC[C@@H](C(N)=O)NC(=O)[C@@H]2CCCN2C(=O)[C@H](CC(C)C)NC(=O)CNC1=O [Compound 19] (Ac-TVFTSWEEYLDWVGSGCRLPWNLQRIGLPC-NH2; disulfide 17-30) | sub-nanomolar range | 0.0989 nM | ~500 nM | 100% | single digit nanomolar range | > 50000 nM | potent inhibitors | 2 nM | potent inhibitor |  |  |  |  |  |  |  |  | IC50 in phage competition ELISA (PCSK9 [4]; listed as Pep2-8_K9gvpep4): low nanomolar range; also recorded: single digit nanomolar range; IC50 (PCSK9 [6]; TR-FRET, Example 7, read-out: PCSK9/EGF(A) IC50): 9 nM |
| CC[C@H](C)[C@H](NC(=O)[C@H](CCCCNC(=N)N)NC(=O)[C@@H](NC(=O)[C@H](CC(C)C)NC(=O)[C@H](CC(N)=O)NC(=O)[C@H](Cc1c[nH]c2ccccc12)NC(=O)CNC(=O)[C@@H]1CCCN1C(=O)[C@H](Cc1ccccc1)NC(=O)[C@H](CO)NC(=O)[C@H](CCC(=O)O)NC(=O)[C@H](CCSC)NC(C)=O)C(C)C)C(=O)NCC(=O)N[C@@H](CC(C)C)C(=O)N[C@@H](CC(C)C)C(=O)N[C@@H](CCCNC(=N)N)C(N)=O [Compound 229] (Ac-MESFPGWNLV[hArg]IGLLR-NH2) |  |  |  | ≤ 70% |  |  | inhibition |  | inhibited; also recorded: inhibition | 940 ± 10 nM | inhibited; also recorded: inhibition | 25000 ± 800 nM | ≥ 50000 nM | 8100 nM | 840 ± 80 nM | 810 nM | 8300 ± 100 nM | inhibition of PCSK9-mediated LDLR degradation in HepG2 cells (PCSK9 [2]): concentration-dependent manner; also recorded: concentration-dependent inhibition; response in the His-EGF(A)-Fc counterscreen (His-EGF(A)-Fc): without interference; improvement of affinity to PCSK9Δhelix versus Compound 192 (PCSK9Δhelix [5]; Table 11): more than 6 fold |

Source: US11034725B2, “Compositions and methods for treating cardiovascular disease” (Genentech, Inc., priority 2016, dated 2021)
